System: MCF-7 breast cancer cells
Assay: Microarray gene expression analysis (Agilent whole human genome 4 x 44K; compound vs DMSO, LIMMA log2 fold change)
Format: cell-based

Oc1cccc(-c2nc(N3CCOCC3)c3oc4ncccc4c3n2)c1 [PI-103]
PRNP log2FC: 0.095 | log2FC: 0.10 | AARS log2FC (Apoptosis genes, Gene 16): -0.158 | ABL1 log2FC (Apoptosis genes, Gene 25): -0.144 | ABR log2FC (Apoptosis genes, Gene 29): -0.279 | ACTN4 log2FC (Apoptosis genes, Gene 81): -0.244 | ACTN1 log2FC (Apoptosis genes, Gene 87): -0.457 | ACTN2 log2FC (Apoptosis genes, Gene 88): 0.074 | ACTN3 log2FC (Apoptosis genes, Gene 89): -0.703 | ACVR1 log2FC (Apoptosis genes, Gene 90): 0.552 | ACVR1B log2FC (Apoptosis genes, Gene 91): -0.214 | ADA log2FC (Apoptosis genes, Gene 100): -0.093 | ADAM8 log2FC (Apoptosis genes, Gene 101): -0.513 | ADAR log2FC (Apoptosis genes, Gene 103): -0.239 | ADCYAP1 log2FC (Apoptosis genes, Gene 116): 0.042 | ADD1 log2FC (Apoptosis genes, Gene 118): -0.173 | ADM log2FC (Apoptosis genes, Gene 133): -0.875 | ADORA1 log2FC (Apoptosis genes, Gene 134): -1.870 | ADORA2A log2FC (Apoptosis genes, Gene 135): -0.109 | ADRB1 log2FC (Apoptosis genes, Gene 153): -0.133 | AES log2FC (Apoptosis genes, Gene 166): -0.056 | AGT log2FC (Apoptosis genes, Gene 183): -0.084 | AHR log2FC (Apoptosis genes, Gene 196): 0.783 | AKT1 log2FC (Apoptosis genes, Gene 207): -0.579 | AKT2 log2FC (Apoptosis genes, Gene 208): -0.406 | ALDH1A3 log2FC (Apoptosis genes, Gene 220): -0.150 | ALDOC log2FC (Apoptosis genes, Gene 230): 0.017 | ALK log2FC (Apoptosis genes, Gene 238): 0.007 | ALOX15B log2FC (Apoptosis genes, Gene 247): -0.00234 | ANGPT1 log2FC (Apoptosis genes, Gene 284): -0.412 | SLC25A4 log2FC (Apoptosis genes, Gene 291): -0.414 | SLC25A5 log2FC (Apoptosis genes, Gene 292): -0.037 | ANXA1 log2FC (Apoptosis genes, Gene 301): 0.803 | ANXA4 log2FC (Apoptosis genes, Gene 307): 0.480 | ANXA5 log2FC (Apoptosis genes, Gene 308): 0.167 | APAF1 log2FC (Apoptosis genes, Gene 317): 0.575 | NUDT2 log2FC (Apoptosis genes, Gene 318): 0.219 | APBB2 log2FC (Apoptosis genes, Gene 323): -0.180 | APC log2FC (Apoptosis genes, Gene 324): 0.150 | BIRC3 log2FC (Apoptosis genes, Gene 330): -0.884 | BIRC5 log2FC (Apoptosis genes, Gene 332): 0.037 | APLP1 log2FC (Apoptosis genes, Gene 333): -0.057 | APOE log2FC (Apoptosis genes, Gene 348): 0.390 | APP log2FC (Apoptosis genes, Gene 351): 0.331 | FASLG log2FC (Apoptosis genes, Gene 356): -0.231 | AQP2 log2FC (Apoptosis genes, Gene 359): -0.010 | AR log2FC (Apoptosis genes, Gene 367): 0.287 | ARAF log2FC (Apoptosis genes, Gene 369): -0.336 | ARF6 log2FC (Apoptosis genes, Gene 382): -0.566 | RHOB log2FC (Apoptosis genes, Gene 388): -0.099 | ARHGAP4 log2FC (Apoptosis genes, Gene 393): 0.173 | ARHGDIA log2FC (Apoptosis genes, Gene 396): -0.904 | ARRB2 log2FC (Apoptosis genes, Gene 409): 0.444 | ASCL1 log2FC (Apoptosis genes, Gene 429): -0.053 | ASNS log2FC (Apoptosis genes, Gene 440): -0.385 | ATF4 log2FC (Apoptosis genes, Gene 468): -0.201 | ATM log2FC (Apoptosis genes, Gene 472): 0.013 | ATP2A1 log2FC (Apoptosis genes, Gene 487): -0.025 | AVP log2FC (Apoptosis genes, Gene 551): -0.317 | AXL log2FC (Apoptosis genes, Gene 558): 0.362 | AZU1 log2FC (Apoptosis genes, Gene 566): 0.048 | BAD log2FC (Apoptosis genes, Gene 572): 0.529 | BAG1 log2FC (Apoptosis genes, Gene 573): 1.113 | BAK1 log2FC (Apoptosis genes, Gene 578): -0.383 | BARD1 log2FC (Apoptosis genes, Gene 580): 0.336 | BAX log2FC (Apoptosis genes, Gene 581): -0.146 | BCL2 log2FC (Apoptosis genes, Gene 596): -0.342 | BCL2A1 log2FC (Apoptosis genes, Gene 597): -0.041 | BCL2L1 log2FC (Apoptosis genes, Gene 598): -0.919 | BCL2L2 log2FC (Apoptosis genes, Gene 599): 0.313 | BCL3 log2FC (Apoptosis genes, Gene 602): -1.077 | BCL6 log2FC (Apoptosis genes, Gene 604): 1.197 | BDNF log2FC (Apoptosis genes, Gene 627): -0.180 | BID log2FC (Apoptosis genes, Gene 637): -0.261 | BIK log2FC (Apoptosis genes, Gene 638): -0.571 | BLM log2FC (Apoptosis genes, Gene 641): 0.071 | BMP4 log2FC (Apoptosis genes, Gene 652): 0.224 | BMP7 log2FC (Apoptosis genes, Gene 655): -0.324 | BMPR1B log2FC (Apoptosis genes, Gene 658): -0.150 | BMX log2FC (Apoptosis genes, Gene 660): 0.041 | BNIP1 log2FC (Apoptosis genes, Gene 662): 0.320 | BNIP2 log2FC (Apoptosis genes, Gene 663): 0.429 | BNIP3 log2FC (Apoptosis genes, Gene 664): 0.757 | BNIP3L log2FC (Apoptosis genes, Gene 665): 1.132 | FOXL2 log2FC (Apoptosis genes, Gene 668): -0.465 | BRCA1 log2FC (Apoptosis genes, Gene 672): 0.741 | BRAF log2FC (Apoptosis genes, Gene 673): 0.018 | BRCA2 log2FC (Apoptosis genes, Gene 675): 0.100 | BTC log2FC (Apoptosis genes, Gene 685): 0.236 | BTG1 log2FC (Apoptosis genes, Gene 694): 1.197 | BUB1 log2FC (Apoptosis genes, Gene 699): 0.591 | BUB1B log2FC (Apoptosis genes, Gene 701): 0.146 | TSPO log2FC (Apoptosis genes, Gene 706): 0.105 | C5AR1 log2FC (Apoptosis genes, Gene 728): 0.079 | CACNA1A log2FC (Apoptosis genes, Gene 773): -0.069 | CALR log2FC (Apoptosis genes, Gene 811): -0.161 | CAMK2B log2FC (Apoptosis genes, Gene 816): 0.010 | CAST log2FC (Apoptosis genes, Gene 831): 0.459 | CASP1 log2FC (Apoptosis genes, Gene 834): 0.025 | CASP2 log2FC (Apoptosis genes, Gene 835): -0.763 | CASP3 log2FC (Apoptosis genes, Gene 836): 0.305 | CASP4 log2FC (Apoptosis genes, Gene 837): 0.021 | CASP5 log2FC (Apoptosis genes, Gene 838): -0.191 | CASP6 log2FC (Apoptosis genes, Gene 839): 0.478 | CASP7 log2FC (Apoptosis genes, Gene 840): -0.335 | CASP8 log2FC (Apoptosis genes, Gene 841): 0.045 | CASP9 log2FC (Apoptosis genes, Gene 842): 0.133 | CASR log2FC (Apoptosis genes, Gene 846): 0.046 | CAT log2FC (Apoptosis genes, Gene 847): 0.456 | CAV1 log2FC (Apoptosis genes, Gene 857): 0.357 | RUNX3 log2FC (Apoptosis genes, Gene 864): -0.359 | CBL log2FC (Apoptosis genes, Gene 867): 0.455 | CBS log2FC (Apoptosis genes, Gene 875): -0.393 | KRIT1 log2FC (Apoptosis genes, Gene 889): 0.580 | CCNG1 log2FC (Apoptosis genes, Gene 900): 0.460 | CD2 log2FC (Apoptosis genes, Gene 914): -0.198 | CD3E log2FC (Apoptosis genes, Gene 916): -0.245 | CD3G log2FC (Apoptosis genes, Gene 917): -0.217 | CD5 log2FC (Apoptosis genes, Gene 921): 0.023 | CD5L log2FC (Apoptosis genes, Gene 922): -0.081 | CD14 log2FC (Apoptosis genes, Gene 929): -0.379 | CD28 log2FC (Apoptosis genes, Gene 940): 0.036 | CD40 log2FC (Apoptosis genes, Gene 958): -0.612 | CD44 log2FC (Apoptosis genes, Gene 960): -0.262 | CD59 log2FC (Apoptosis genes, Gene 966): -0.006 | CD74 log2FC (Apoptosis genes, Gene 972): 0.013 | CDC34 log2FC (Apoptosis genes, Gene 997): 0.509 | CDC42 log2FC (Apoptosis genes, Gene 998): 0.080 | CDK4 log2FC (Apoptosis genes, Gene 1019): 0.170 | CDKN1A log2FC (Apoptosis genes, Gene 1026): -1.229 | CDKN1B log2FC (Apoptosis genes, Gene 1027): 1.116 | CDKN2A log2FC (Apoptosis genes, Gene 1029): 0.303 | CDKN2D log2FC (Apoptosis genes, Gene 1032): 0.903 | CEBPB log2FC (Apoptosis genes, Gene 1051): -0.197 | CFL1 log2FC (Apoptosis genes, Gene 1072): -0.246 | CTSC log2FC (Apoptosis genes, Gene 1075): -0.333 | CGB log2FC (Apoptosis genes, Gene 1082): -0.180 | CLU log2FC (Apoptosis genes, Gene 1191): 0.052 | CLN3 log2FC (Apoptosis genes, Gene 1201): -0.046 | CCR7 log2FC (Apoptosis genes, Gene 1236): 0.113 | PLK3 log2FC (Apoptosis genes, Gene 1263): -1.591 | CNR1 log2FC (Apoptosis genes, Gene 1268): 0.471 | ATF2 log2FC (Apoptosis genes, Gene 1386): 0.878 | CRH log2FC (Apoptosis genes, Gene 1392): 0.059 | CRIP1 log2FC (Apoptosis genes, Gene 1396): 0.723 | CRYAA log2FC (Apoptosis genes, Gene 1409): -0.050 | CRYAB log2FC (Apoptosis genes, Gene 1410): -0.029 | MAPK14 log2FC (Apoptosis genes, Gene 1432): -0.303 | CSE1L log2FC (Apoptosis genes, Gene 1434): 0.551 | CSF2 log2FC (Apoptosis genes, Gene 1437): -0.616 | CSNK2A1 log2FC (Apoptosis genes, Gene 1457): -0.647 | CSNK2A2 log2FC (Apoptosis genes, Gene 1459): 0.329 | CSTB log2FC (Apoptosis genes, Gene 1476): 0.261 | NKX2-5 log2FC (Apoptosis genes, Gene 1482): -0.572 | CTGF log2FC (Apoptosis genes, Gene 1490): -0.354 | CTH log2FC (Apoptosis genes, Gene 1491): 0.722

From PMC4303209, “A novel phosphatidylinositol 3-kinase (PI3K) inhibitor directs a potent FOXO-dependent, p53-independent cell cycle arrest phenotype characterized by the differential induction of a subset of FOXO-regulated genes” (Breast Cancer Research : BCR, 2014)
